Values joined by “and” are separate entries in the source; they are usually repeats but may differ in a detail not shown here. Identical values can stand only once. Like-named read-outs stand apart in the source and are kept apart here.
Tests used:
Format in all cases: cell-based, human
[1] = system: A875 NT cells; assay: Boyden chamber chemotaxis/invasion assay, A875 NT; settings: for Fold change - invading cells, Mean / Fold change - invading cells, individual replicates: 1μM; for Fold change (invading cells), Mean: N=3
Description: For Boyden chamber assay, Corning® BioCoat™ Matrigel® Invasion Chambers 8.0 µm PET Membrane were used (cat. no. 354480). A875 NT or WM115 cells were serum-starved for 16 h and then seeded at 60,000 cells per well in serum-free media under different conditions, including DMSO (vehicle) or small molecules Div17E5 or Np75-4A22 at different concentrations to the top chamber of the Matrigel-coated trans-well chamber. The pan-caspase inhibitor Q_VD_poH (at 5 µM) was also introduced in the top chamber in some experiments. Two different chemoattractants, NGF (at 50 ng/ml or 100 ng/ml as indicated) or 10% FBS were added to the bottom chamber. Assays were carried out for 8 h after which filters were fixed in 4% PFA and stained with DAPI. Cells that had remained on the top of the filter were gently scrapped away with a cotton tip. The filter lower side was imaged on an inverted fluorescence microscope and counted using ImageJ software (NIH).

[2] = Cell viability (Presto Blue), A875 shp75; settings: human, A875 shp75 cells, 2 days; for viability at 2 days, 1 uM: Div17E5 1 uM; for viability at 2 days, 1.5 uM: Div17E5 1.5 uM
Description: (§1) To measure the cytotoxic effect of Div17E5, A875 NT or shp75 cells were seeded at 2000 cells per well (in 100 μL DMEM) in a 96-well plate and incubated for 12 h. Next, Div17E5 at various concentrations was added and incubated at 37 °C in 5% CO2 for 2 days. Following treatment, 10 μL Presto Blue® (resazurin, ThermoFIsher) was added to each well of the 96-well plate and incubated for 2 h at 37 °C in 5% CO2. Cellular fluorescence in each well was measured at 535 nm excitation and 615 nm emission using a microtiter plate reader. Data was converted into the relative cell viability (%) from the fluorescence of cells in each treatment relative to that of the DMSO control group (set as 100%).

[3] = system: A875 shp75 cells; assay: Cell viability (Presto Blue), A875 shp75; settings: for viability at 5 µM: Div17E5 5 uM
Description: as §1

[4] = 5μM Q_VD_pOH + 10uM Div17E5, With NGF
[5] = 5μM Q_VD_pOH + 10uM Div17E5, without NGF
[6] = N=3, read-out: Cell Viability, Mean
[7] = read-out: Cell Viability, n1-n3

## Oc1ccc(-c2cncc(Nc3ccc(Br)c(Cl)c3)n2)cc1 [Div17E5]
[1]
  NGF-induced chemotaxis: strongly inhibited
  background cell migration in the absence of NGF: did not significantly affect background cell migration
[1]; NGF
  Fold change - invading cells, Mean: 1.91
  Fold change - invading cells, individual replicates: 1.80 and 1.91 and 2.02
[1]; no NGF
  Fold change - invading cells, Mean: 0.91
  Fold change - invading cells, individual replicates: 0.87 and 0.90 and 0.95
[1]; 1 μM, NGF 50 ng/ml
  NGF activity in Boyden chamber assay of cell chemotaxis: inactive
[1]; [4]
  Fold change (invading cells), n1-n3: 0.46 Fold and 0.84 Fold and 0.68 Fold
  Fold change (invading cells), Mean: 0.66 Fold
[1]; [5]
  Fold change (invading cells), n1-n3: 0.94 Fold and 0.80 Fold
  Fold change (invading cells), Mean: 0.89 Fold
[1]; 10μM Div17E5, With NGF
  Fold change (invading cells), n1-n3: 0.42 Fold and 0.37 Fold and 0.47 Fold
  Fold change (invading cells), Mean: 0.42 Fold
[1]; 10μM Div17E5, without NGF
  Fold change (invading cells), n1-n3: 0.87 Fold and 0.75 Fold and 0.76 Fold
  Fold change (invading cells), Mean: 0.79 Fold
[2]; Div17E5 0.5 uM, read-out: Cell Viability, n1-n3
  viability at 2 days, 0.5 uM: 101%
[2]; [6]
  viability at 2 days, 1 uM: 107%
  viability at 2 days, 1.5 uM: 103%
[2]; [7]
  viability at 2 days, 1 uM: 101%
  viability at 2 days, 1.5 uM: 107%
[3]; Div17E5 0.5 uM, 2 days
  Cell Viability, n1-n3: 104%
[3]; Div17E5 1 uM, 2 days
  Cell Viability, n1-n3: 109% and 112%
[3]; Div17E5 1.5 uM, 2 days
  Cell Viability, n1-n3: 100%
[3]; Div17E5 2 uM, 2 days
  Cell Viability, n1-n3: 96% and 100%
[3]; Div17E5 2.5 uM, 2 days
  Cell Viability, n1-n3: 90% and 99%
[3]; Div17E5 7.5 uM, 2 days
  Cell Viability, n1-n3: 81% and 91%
[3]; Div17E5 10 uM, 2 days
  Cell Viability, n1-n3: 90% and 78%
[3]; Homo sapiens, A875, 48 h, Div17E5 0.5 uM, 2 days, N=3
  viability at 0.5 µM: 103%
[3]; Homo sapiens, A875, 48 h, Div17E5 2 uM, 2 days, N=3, read-out: Cell Viability, Mean
  viability at 2 µM: 101%
[3]; Homo sapiens, A875, 48 h, Div17E5 2 uM, 2 days, read-out: Cell Viability, n1-n3
  viability at 2 µM: 107%
[3]; Homo sapiens, A875, 48 h, Div17E5 2.5 uM, 2 days, N=3, read-out: Cell Viability, Mean
  viability at 2.5 µM: 92%
[3]; Homo sapiens, A875, 48 h, Div17E5 2.5 uM, 2 days, read-out: Cell Viability, n1-n3
  viability at 2.5 µM: 86%
[3]; Homo sapiens, A875, 48 h, 2 days, N=3, read-out: Cell Viability, Mean
  viability at 5 µM: 93%
[3]; Homo sapiens, A875, 48 h, 2 days, read-out: Cell Viability, n1-n3
  viability at 5 µM: 101%
[3]; Homo sapiens, A875, 48 h, Div17E5 7.5 uM, 2 days, N=3, read-out: Cell Viability, Mean
  viability at 7.5 µM: 86%
[3]; Homo sapiens, A875, 48 h, Div17E5 7.5 uM, 2 days, read-out: Cell Viability, n1-n3
  viability at 7.5 µM: 85%
[3]; Homo sapiens, A875, 48 h, Div17E5 10 uM, 2 days, N=3, read-out: Cell Viability, Mean
  viability at 10 µM: 84%
[3]; Homo sapiens, A875, 48 h, Div17E5 10 uM, 2 days, read-out: Cell Viability, n1-n3
  viability at 10 µM: 85%
[3]; above 10 μM
  cell viability: sensitive
[3]; doses up to 10 μM
  cell viability: largely refractory
